From patent US8916575B2, “Quinazoline derivatives for the treatment of viral infections and further diseases” (Janssen R&D Ireland, priority 2011, dated 2014)
Marks after values point to notes of the source that are not given here.

Legend:
human TLR7 = target: T1, human TLR7 (Homo sapiens, UniProt Q9NYK1); assay: TLR7 wild type NFκB-luc cellular reporter assay; assay type: cell-based; parameters: unit not given here; details: for TLR7-wt (LEC): second part of table
T1 construct: expressed in transfected cells; host or cells: HEK293
T1 sequence (Q9NYK1 27-1049): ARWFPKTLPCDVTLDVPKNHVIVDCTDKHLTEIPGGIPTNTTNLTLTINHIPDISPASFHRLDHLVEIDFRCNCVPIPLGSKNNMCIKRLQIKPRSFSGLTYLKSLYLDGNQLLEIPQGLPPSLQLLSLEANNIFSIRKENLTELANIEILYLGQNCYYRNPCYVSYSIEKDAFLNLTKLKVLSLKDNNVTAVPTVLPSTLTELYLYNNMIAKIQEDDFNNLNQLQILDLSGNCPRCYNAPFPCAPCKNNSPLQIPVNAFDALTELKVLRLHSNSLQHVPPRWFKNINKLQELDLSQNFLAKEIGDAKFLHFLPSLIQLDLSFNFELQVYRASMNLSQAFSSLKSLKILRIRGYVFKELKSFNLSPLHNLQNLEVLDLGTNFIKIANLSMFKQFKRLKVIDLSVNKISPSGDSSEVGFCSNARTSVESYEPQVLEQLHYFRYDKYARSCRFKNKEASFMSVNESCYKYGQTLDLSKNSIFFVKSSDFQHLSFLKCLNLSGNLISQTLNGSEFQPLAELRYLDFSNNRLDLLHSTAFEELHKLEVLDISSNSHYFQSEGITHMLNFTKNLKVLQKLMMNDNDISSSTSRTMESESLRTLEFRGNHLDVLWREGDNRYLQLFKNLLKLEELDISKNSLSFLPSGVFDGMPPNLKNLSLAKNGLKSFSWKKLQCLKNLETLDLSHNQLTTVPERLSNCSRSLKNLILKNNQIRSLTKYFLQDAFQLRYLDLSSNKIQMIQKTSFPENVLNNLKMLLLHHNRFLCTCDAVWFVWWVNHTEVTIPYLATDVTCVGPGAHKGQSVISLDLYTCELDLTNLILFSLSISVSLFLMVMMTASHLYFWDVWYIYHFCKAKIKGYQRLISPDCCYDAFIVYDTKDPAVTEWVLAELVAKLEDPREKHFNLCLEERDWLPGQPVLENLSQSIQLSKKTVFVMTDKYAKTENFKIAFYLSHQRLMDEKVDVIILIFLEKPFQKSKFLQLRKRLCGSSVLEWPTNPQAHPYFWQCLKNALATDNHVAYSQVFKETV
Protocol: The ability of compounds to activate human TLR7 and/or TLR8 was assessed in a cellular reporter assay using HEK293 cells transiently transfected with a TLR7 or TLR8 expression vector and NFκB-luc reporter construct. In one instance the TLR expression construct expresses the respective wild type sequence or a mutant sequence comprising a deletion in the second leucine-rich repeat of the TLR.
Briefly, HEK293 cells were grown in culture medium (DMEM supplemented with 10% FCS and 2 mM Glutamine). For transfection of cells in 10 cm dishes, cells were detached with Trypsin-EDTA, transfected with a mix of CMV-TLR7 or TLR8 plasmid (750 ng), NFκB-luc plasmid (375 ng) and a transfection reagent and incubated 24 hours at 37° C. in a humidified 5% CO2 atmosphere. Transfected cells were then detached with Trypsin-EDTA, washed in PBS and resuspended in medium to a density of 1.67×10^5 cells/mL. Thirty microliters of cells were then dispensed into each well in 384-well plates, where 10 μL of compound in 4% DMSO was already present. […] Dose response curves were generated from measurements performed in quadruplicates. Lowest effective concentrations (LEC) values, defined as the concentration that induces an effect which is at least two fold above the standard deviation of the assay, were determined for each compound.

[1] = system: interferon-stimulated responsive elements (ISRE); assay: Activation of ISRE promoter elements by conditioned media from PBMC (HEK-ISREluc); assay type: cell-based, human; parameters: unit not given here; details: compound applied to PBMCs, supernatant transferred to HEK-ISREluc cells, 24 hours
Protocol: The potential of compounds to induce IFN-I was also evaluated by measuring the activation of interferon-stimulated responsive elements (ISRE) by conditioned media from PBMC. The ISRE element of sequence GAAACTGAAACT is highly responsive to the STAT1-STAT2-IRF9 transcription factor, activated upon binding of IFN-I to their receptor IFNAR (Clontech, PT3372-5W). The plasmid pISRE-Luc from Clontech (ref. 631913) contains 5 copies of this ISRE element, followed by the firefly luciferase ORF. A HEK293 cell line stably transfected with pISRE-Luc (HEK-ISREluc) was established to profile of the conditioned PBMC cell culture media.
Briefly, PBMCs were prepared from buffy coats of at least two donors using a standard Ficoll centrifugation protocol. Isolated PBMCs were resuspended in RPMI medium supplemented with 10% human AB serum and 2×10^5 cells/well were dispensed into 384-well plates containing compounds (70 μL total volume). After overnight incubation, 10 μL of supernatant was transferred to 384-well plates containing 5×10^3 HEK-ISREluc cells/well in 30 μL (plated the day before). Following 24 hours of incubation, activation of the ISRE elements was measured by assaying luciferase activity using 40 μL/well Steady Lite Plus substrate (Perkin Elmer) and measured with ViewLux ultraHTS microplate imager (Perkin Elmer). The stimulating activity of each compound on the HEK-ISREluc cells was reported as LEC value, defined as the compound concentration applied to the PBMCs resulting in a luciferase activity at least two fold above the standard deviation of the assay. The LEC in turn indicates the degree of ISRE activation on transfer of a defined amount of PBMC culture medium. Recombinant interferon α-2a (Roferon-A) was used as a standard control compound.

[2] = HEK293 NFκB-luc reporter, 6 hours incubation

| Compound | TLR7-wt_LEC (human TLR7; HEK293 NFκB-luc reporter, 6 hours incubation, lowest effective concentration) | TLR7-wt_LEC (human TLR7; Assay run at 48 hours) | HEK-ISRE luc (LEC) [1] | TLR7-wt (LEC) (human TLR7; [2]) |
| --- | --- | --- | --- | --- |
| CCCCNc1nc(N)nc2cc(OC)c(OC)cc12 [Compound 1] | 5.0 | – | – | – |
| CCCC[C@@H](CCO)Nc1nc(N)nc2cc(OC)c(OC)cc12 [Compound 3] | – | 4.0 * | – | – |
| CCCCNc1nc(N)nc2cccc(OC)c12 [Compound 9] | – | – | 0.10 | 0.41 |
| CCC[C@@H](CO)Nc1nc(N)nc2cccc(-c3ccccc3)c12 [Compound 10] | – | – | 2.14 | 6.08 |
| CCCCNc1nc(N)nc2cccc(OCCOC)c12 [Compound 11] | – | – | 0.12 | 0.08 |
| CCCCCNc1nc(N)nc2ccc(Br)cc12 [Compound 13] | – | – | 0.57 | 0.76 |
| CCCCNc1nc(N)nc2cc(C(=O)OC)ccc12 [Compound 17] | – | – | 0.75 | 5.10 |
| CCCCNc1nc(N)nc2cc(CO)ccc12 [Compound 18] | – | – | 0.05 | 0.13 |
| CCCCNc1nc(N)nc2ccc(-n3cnc(C)c3)cc12 [Compound 21] | – | – | 12.06 | >25 |
| CCCCNc1nc(N)nc2ccc(CO)cc12 [Compound 24] | – | – | 0.14 | 0.93 |
| CCC[C@@H](CCO)Nc1nc(N)nc2ccc(CC)cc12 [Compound 25] | – | – | 0.16 | 0.57 |
| CCC[C@@H](CCO)Nc1nc(N)nc2ccc(C(C)C)cc12 [Compound 26] | – | – | 3.07 | 3.60 |
| CCC[C@@H](CCO)Nc1nc(N)nc2ccc(Oc3ccc(C(F)(F)F)cc3Cl)cc12 [Compound 27] | – | – | 14.21 | 12.95 |
| CCCCNc1nc(N)nc2cc(Cl)c3c(c12)OCCO3 [Compound 28] | – | – | 1.11 | 2.06 |
| CCC[C@@H](CCO)Nc1nc(N)nc2ccc(Oc3ccc(C(F)(F)F)cc3)cc12 [Compound 29] | – | – | >23.81 | 11.13 |
| C#CCOc1cccc2nc(N)nc(NCCCC)c12 [Compound 30] | – | – | 0.04 | 0.05 |
| CCCCNc1nc(N)nc2cccc(OC(C)C)c12 [Compound 31] | – | – | 0.04 | 0.09 |
| CCCCNc1nc(N)nc2cccc(CCc3ccccc3)c12 [Compound 32] | – | – | 0.27 | 0.13 |
| CCC[C@@H](CO)Nc1nc(N)nc2cc(CO)ccc12 [Compound 33] | – | – | 0.14 | 1.88 |
| CCC[C@@H](CO)Nc1nc(N)nc2ccc(CO)cc12 [Compound 34] | – | – | 0.39 | 10.77 |
| CCCCNc1nc(N)nc2ccc(Oc3ccc(C(F)(F)F)cc3Cl)cc12 [Compound 35] | – | – | >23.81 | 4.15 |
| CCCCNc1nc(N)nc2cccc(C)c12 [Compound 36] | – | – | 0.32 | 0.47 |
| CCCCNc1nc(N)nc2c(F)cccc12 [Compound 37] | – | – | 0.07 | 0.16 |
| CCCCNc1nc(N)nc2ccc(F)cc12 [Compound 38] | – | – | 0.11 | 0.29 |

| Compound | TLR7-wt_LEC (human TLR7; HEK293 NFκB-luc reporter, 6 hours incubation, lowest effective concentration) | TLR7-wt_LEC (human TLR7; Assay run at 48 hours) | HEK-ISRE luc (LEC) [1] | TLR7-wt (LEC) (human TLR7; [2]) |
| --- | --- | --- | --- | --- |
| CCCCNc1nc(N)nc2cc(OC)ccc12 [Compound 39] | – | – | 0.15 | 0.94 |
| CCCCNc1nc(N)nc2ccc(OC)cc12 [Compound 40] | – | – | 2.44 | 5.64 |
| CCCCNc1nc(N)nc2cccc(Cl)c12 [Compound 41] | – | – | 0.17 | 0.99 |
| CCCCNc1nc(N)nc2cc(F)c(F)cc12 [Compound 42] | – | – | 0.26 | 1.81 |
| CCC[C@@H](CO)Nc1nc(N)nc2c(C)cccc12 [Compound 43] | – | – | 0.59 | 4.54 |
| CCC[C@@H](CO)Nc1nc(N)nc2cc(C)ccc12 [Compound 44] | – | – | 0.09 | 0.43 |
| CCC[C@@H](CO)Nc1nc(N)nc2ccc(C)cc12 [Compound 45] | – | – | 0.04 | 0.41 |
| CCC[C@@H](CO)Nc1nc(N)nc2cccc(C)c12 [Compound 46] | – | – | 0.07 | 0.77 |
| CCC[C@@H](CO)Nc1nc(N)nc2c(F)cccc12 [Compound 47] | – | – | 0.05 | 0.67 |
| CCC[C@@H](CO)Nc1nc(N)nc2cc(F)ccc12 [Compound 48] | – | – | 0.02 | 0.54 |
| CCC[C@@H](CO)Nc1nc(N)nc2ccc(F)cc12 [Compound 49] | – | – | 0.13 | 2.09 |
| CCC[C@@H](CO)Nc1nc(N)nc2cccc(F)c12 [Compound 50] | – | – | 0.01 | 0.32 |
| CCCC[C@@H](CO)Nc1nc(N)nc2ccc(C)cc12 [Compound 51] | – | – | 0.09 | 0.60 |
| CCCC[C@@H](CO)Nc1nc(N)nc2cccc(C)c12 [Compound 52] | – | – | 0.03 | 0.41 |
| CCC[C@@H](CCO)Nc1nc(N)nc2cc(C)ccc12 [Compound 53] | – | – | 0.02 | 0.06 |
| CCC[C@@H](CCO)Nc1nc(N)nc2ccc(C)cc12 [Compound 54] | – | – | 0.18 | 0.54 |
| CCC[C@@H](CO)Nc1nc(N)nc2cc(OC)ccc12 [Compound 56] | – | – | 0.09 | 0.39 |
| CCC[C@@H](CO)Nc1nc(N)nc2ccc(OC)cc12 [Compound 57] | – | – | 2.08 | 10.77 |
| CCC[C@@H](CO)Nc1nc(N)nc2cccc(OC)c12 [Compound 58] | – | – | 0.04 | 0.18 |
| CCCC[C@@H](CO)Nc1nc(N)nc2c(F)cccc12 [Compound 59] | – | – | 0.05 | 0.29 |
| CCCC[C@@H](CO)Nc1nc(N)nc2cc(F)ccc12 [Compound 60] | – | – | 0.02 | 0.23 |
| CCCC[C@@H](CO)Nc1nc(N)nc2ccc(F)cc12 [Compound 61] | – | – | 0.12 | 0.57 |
| CCCC[C@@H](CO)Nc1nc(N)nc2cccc(F)c12 [Compound 62] | – | – | 0.03 | 0.75 |
